Among the data in US6121323A, “Bishydroxyureas” (3M Innovative Properties Company, priority 1997, dated 2000) are IC50 values, retold here.

The assay has as its target T1, 5-lipoxygenase (Homo sapiens, UniProt P09917).
T1 construct: endogenous in cells; host or cells: leukocytes from whole human blood (EDTA, dextran sedimentation, hypotonic lysis)
T1 sequence (P09917 1-674): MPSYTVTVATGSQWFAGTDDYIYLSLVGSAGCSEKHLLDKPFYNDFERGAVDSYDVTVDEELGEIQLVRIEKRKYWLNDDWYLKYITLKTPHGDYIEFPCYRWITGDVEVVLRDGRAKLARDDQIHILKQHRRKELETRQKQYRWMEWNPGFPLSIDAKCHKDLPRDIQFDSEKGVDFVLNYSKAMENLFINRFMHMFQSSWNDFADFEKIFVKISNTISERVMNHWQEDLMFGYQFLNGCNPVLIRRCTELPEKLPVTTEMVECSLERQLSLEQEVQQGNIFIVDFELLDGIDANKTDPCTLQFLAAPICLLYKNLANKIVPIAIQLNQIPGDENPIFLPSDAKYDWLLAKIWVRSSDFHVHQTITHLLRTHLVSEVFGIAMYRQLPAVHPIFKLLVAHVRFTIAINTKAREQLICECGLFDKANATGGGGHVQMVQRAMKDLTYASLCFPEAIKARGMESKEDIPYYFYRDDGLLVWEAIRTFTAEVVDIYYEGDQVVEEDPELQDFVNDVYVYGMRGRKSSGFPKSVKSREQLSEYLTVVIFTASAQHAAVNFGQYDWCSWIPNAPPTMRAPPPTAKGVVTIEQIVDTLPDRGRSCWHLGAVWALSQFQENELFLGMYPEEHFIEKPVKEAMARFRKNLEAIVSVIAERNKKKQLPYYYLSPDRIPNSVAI
Kind of assay: 5-Lipoxygenase inhibition in human leukocytes (LTC4 by radioimmunoassay). Format: cell-based. Particulars: A23187 stimulated, LTC4 readout, read-out: IC50 (concentration producing 50% leukotriene biosynthesis inhibition). As to the method: 5-LIPOXYGENASE INHIBITION IN HUMAN LEUKOCYTES
The test method described below measures the ability of compounds of the invention to inhibit 5-lipoxygenase activity in human leukocytes.
Whole human blood is collected by venipuncture into EDTA (1.4 mL of 0.25M per 60 mL of whole blood). The red blood cells are sedimented with a 6% dextran/0.9% sodium chloride solution at a ratio of 25 mL whole blood to 15 mL dextran solution. The blood/dextran combination is mixed by inversion and the red blood cells are allowed to settle out for 45 minutes at ambient temperature. The plasma/dextran supernatant is removed then centrifuged at ambient temperature at 3000 rpm for 10 minutes. The plasma/dextran supernatant is removed and the cells are resuspended in 10 mL of the plasma/dextran solution. The cell suspension is combined with 20 mL of water, mixed for 1.5 minutes then immediately combined with 10 mL of 3.6% sodium chloride, mixed and centrifuged at ambient temperature at 3000 rpm for 10 minutes. The pellet is washed with 40 mL of Tris buffer (5.55 mM dextrose, 15.36 mM Tris base, 136.9 mM sodium chloride with pH 7.3-7.4) then centrifuged at 3000 rpm for 10 minutes. The pellet is then resuspended into Tris buffer containing 1 mM calcium chloride to provide approximately 1.0×10^7 cells/mL.
Compounds are dissolved in dimethyl sulfoxide. Compounds are tested at concentrations of 100, 33, 11, 3.7, 1.2 and 0.41 μM. Each concentration is tested in duplicate.
A 15 μL portion of Tris buffer containing 1 mM calcium chloride is added to each well of a 96 well microtiter plate. A 1 μL portion of drug solution or vehicle (dimethyl sulfoxide) is added to each well followed by the addition of a 75 μL portion of the cell suspension. The plates are gently mixed then allowed to stand at ambient temperature for 10 minutes. A 10 μL portion of 30 μM A23187 Calcium Ionophore (prepared by dissolving the ionophore in DMSO and then diluting 1:80 into the Tris buffer) is added to each well except the wells that contain the blanks. The blank wells measure the level of LTC4 production in the absence of A23187. The plates are gently mixed then incubated at 37° C. for 10 minutes.
Following incubation the plates are centrifuged at 2000 rpm for 1.5 minutes and the supernatant is removed as quickly as possible to stop the reaction. The supernatants are frozen at -20° C. until they are assayed.
The supernatants are assayed for the presence of Leukotriene C4 by radioimmunoassay which is performed according to the manufacturer's instructions (Advanced Magnetics; Cambridge, Mass.). Inhibition of leukotriene biosynthesis is calculated as the ratio of the amount of LTC4 formed in the presence (LTC4 +cpd) and absence (LTC4 no cpd) of compound according to the following equation. [formula] IC50 values (concentrations of compound producing 50% leukotriene biosynthesis inhibition) are calculated by linear regression analysis of percentage inhibition versus log compound concentration plots.
On to `CCC(CC)N(O)C(=O)Nc1ccc(Cc2ccc(NC(=O)N(O)C(CC)CC)c(Cl)c2)cc1Cl` [Example 19, 4,4'-Methylenebis(1-hydroxy-1-(1-ethylpropyl)-3-(2-chlorophenyl)urea)], for which the IC50 came to 110 nM. In the case of `CCC(CC)N(O)C(=O)NCCCCCCCCNC(=O)N(O)C(CC)CC` [Example 18, 1,1'-Octamethylenebis(3-hydroxy-3-(1-ethylpropyl)urea)] it was 330 nM; in that of `CCC(CC)N(O)C(=O)NC(C)(C)c1cccc(C(C)(C)NC(=O)N(O)C(CC)CC)c1` [Example 13, 1,1'-(m-Phenylene)bis(1-methyl-1-(3-hydroxy-3-(1-ethylpropyl)ureido)ethane)], 65000 nM. Turning to `CCC(CC)N(O)C(=O)Nc1ccc(C)c(NC(=O)N(O)C(CC)CC)c1` [Example 16, 1,1'-(4-Methyl-m-phenylene)bis(3-hydroxy-3-(1-ethylpropyl)urea)], the IC50 amounted to 58600 nM.

Consider `CCC(CC)N(O)C(=O)Nc1ccc(Oc2ccc(NC(=O)N(O)C(CC)CC)cc2)cc1` [Example 14, 4,4'-Oxybis(1-hydroxy-1-(1-ethylpropyl)-3-phenylurea)], for which the IC50 amounted to 100 nM. As for `CCC(CC)N(O)C(=O)Nc1ccc(NC(=O)N(O)C(CC)CC)cc1` [Example 15, 1,1'-(p-Phenylene)bis(3-hydroxy-3-(1-ethylpropyl)urea)], the IC50 came out at 2100 nM. With `CCC(CC)N(O)C(=O)NCCCC(C)CNC(=O)N(O)C(CC)CC` (stereo not shown) [Example 17, 1,1'-(2-Methylpentamethylene)bis(3-hydroxy-3-(1-ethylpropyl)urea)] the figure was 12000 nM.
